Data as given in PubChem BioAssay (NCI).
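Tested at 5 concentrations; 48 h exposure; 96-well plates; endpoints linearly interpolated, else capped at highest concentration. TGI is the concentration that stops growth completely.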

What was measured:
Assay in all cases: NCI-60 cell line screen, 48 h
786-0 renal = test system: 786-0 renal
A498 renal = test system: A498 renal
A549 NSCLC = test system: A549 NSCLC
ACHN renal = test system: ACHN renal
BT-549 breast = test system: BT-549 breast
CAKI-1 renal = test system: CAKI-1 renal
CCRF-CEM leukemia = test system: CCRF-CEM leukemia
COLO 205 colon = test system: COLO 205 colon
DU-145 prostate = test system: DU-145 prostate
EKVX NSCLC = test system: EKVX NSCLC
HCC-2998 colon = test system: HCC-2998 colon
HCT-116 colon = test system: HCT-116 colon
HCT-15 colon = test system: HCT-15 colon
HL-60(TB) leukemia = test system: HL-60(TB) leukemia
HOP-62 NSCLC = test system: HOP-62 NSCLC
HOP-92 NSCLC = test system: HOP-92 NSCLC
HS 578T breast = test system: HS 578T breast
HT29 colon = test system: HT29 colon
IGROV1 ovarian = test system: IGROV1 ovarian
K-562 leukemia = test system: K-562 leukemia
KM12 colon = test system: KM12 colon
LOX IMVI melanoma = test system: LOX IMVI melanoma
M14 melanoma = test system: M14 melanoma
MALME-3M melanoma = test system: MALME-3M melanoma
MCF7 breast = test system: MCF7 breast
MDA-MB-231 breast = test system: MDA-MB-231 breast
MDA-MB-435 = test system: MDA-MB-435
MDA-N = test system: MDA-N
NCI-H226 lung = test system: NCI-H226 lung
NCI-H23 lung = test system: NCI-H23 lung
NCI-H460 lung = test system: NCI-H460 lung
NCI-H522 lung = test system: NCI-H522 lung
NCI/ADR-RES ovarian = test system: NCI/ADR-RES ovarian
OVCAR-3 ovarian = test system: OVCAR-3 ovarian
OVCAR-4 ovarian = test system: OVCAR-4 ovarian
OVCAR-5 ovarian = test system: OVCAR-5 ovarian
OVCAR-8 ovarian = test system: OVCAR-8 ovarian
PC-3 prostate = test system: PC-3 prostate
RPMI-8226 leukemia = test system: RPMI-8226 leukemia
RXF 393 renal = test system: RXF 393 renal
SF-268 CNS = test system: SF-268 CNS
SF-295 CNS = test system: SF-295 CNS
SF-539 CNS = test system: SF-539 CNS
SK-MEL-2 melanoma = test system: SK-MEL-2 melanoma
SK-MEL-28 melanoma = test system: SK-MEL-28 melanoma
SK-MEL-5 melanoma = test system: SK-MEL-5 melanoma
SN12C renal = test system: SN12C renal
SNB-19 CNS = test system: SNB-19 CNS
SNB-75 CNS = test system: SNB-75 CNS
SR leukemia = test system: SR leukemia
SW-620 colon = test system: SW-620 colon
T-47D breast = test system: T-47D breast
TK-10 renal = test system: TK-10 renal
U251 CNS = test system: U251 CNS
UACC-257 melanoma = test system: UACC-257 melanoma
UACC-62 melanoma = test system: UACC-62 melanoma
UO-31 renal = test system: UO-31 renal

O=c1[nH]nc(Nc2ccc(Cl)cc2)c2nnn(C3CCCCC3)c12
TGI (786-0 renal): 31.4 µM | TGI (A498 renal): > 100 µM | TGI (A549 NSCLC): > 100 µM | TGI (ACHN renal): > 100 µM | TGI (BT-549 breast): > 100 µM | TGI (CAKI-1 renal): 51.8 µM | TGI (CCRF-CEM leukemia): > 100 µM | TGI (COLO 205 colon): > 100 µM | TGI (DU-145 prostate): > 100 µM | TGI (EKVX NSCLC): > 100 µM | TGI (HCC-2998 colon): > 100 µM | TGI (HCT-116 colon): > 100 µM | TGI (HCT-15 colon): > 100 µM | TGI (HL-60(TB) leukemia): > 100 µM | TGI (HOP-62 NSCLC): > 100 µM | TGI (HOP-92 NSCLC): 66 µM | TGI (HS 578T breast): > 100 µM | TGI (HT29 colon): > 100 µM | TGI (IGROV1 ovarian): > 100 µM | TGI (K-562 leukemia): > 100 µM | TGI (KM12 colon): > 100 µM | TGI (LOX IMVI melanoma): 43.3 µM | TGI (M14 melanoma): > 100 µM | TGI (MALME-3M melanoma): > 100 µM | TGI (MCF7 breast): > 100 µM | TGI (MDA-MB-231 breast): 45.2 µM | TGI (MDA-MB-435): > 100 µM | TGI (MDA-N): > 100 µM | TGI (NCI-H226 lung): > 100 µM | TGI (NCI-H23 lung): > 100 µM | TGI (NCI-H460 lung): > 100 µM | TGI (NCI-H522 lung): 81.7 µM | TGI (NCI/ADR-RES ovarian): > 100 µM | TGI (OVCAR-3 ovarian): > 100 µM | TGI (OVCAR-4 ovarian): 43.1 µM | TGI (OVCAR-5 ovarian): > 100 µM | TGI (OVCAR-8 ovarian): 34.3 µM | TGI (PC-3 prostate): > 100 µM | TGI (RPMI-8226 leukemia): > 100 µM | TGI (RXF 393 renal): 92.8 µM | TGI (SF-268 CNS): > 100 µM | TGI (SF-295 CNS): > 100 µM | TGI (SF-539 CNS): > 100 µM | TGI (SK-MEL-2 melanoma): > 100 µM | TGI (SK-MEL-28 melanoma): > 100 µM | TGI (SK-MEL-5 melanoma): > 100 µM | TGI (SN12C renal): > 100 µM | TGI (SNB-19 CNS): > 100 µM | TGI (SNB-75 CNS): > 100 µM | TGI (SR leukemia): 43.3 µM | TGI (SW-620 colon): > 100 µM | TGI (T-47D breast): > 100 µM | TGI (TK-10 renal): > 100 µM | TGI (U251 CNS): 91 µM | TGI (UACC-257 melanoma): > 100 µM | TGI (UACC-62 melanoma): > 100 µM | TGI (UO-31 renal): > 100 µM
